Measured values from patent US7705003B2, “Cyclohexylamides as dopamine D3, D2 and 5-HT1A Antagonists” (Richter Gedeon Vegyeszeti Gyar RT., priority 2005, dated 2010).

Experiments:
Male CD-1 mice = experiment: Inhibition of apomorphine induced climbing; type: in vivo; settings: for ED50: Mus musculus; for ranking of activity in apomorphine climbing assay: apomorphine climbing in mice
Protocol: With respect to the expected clinical application of the compounds of the present invention in addition to their receptor binding profile their in vivo efficacy is a crucial issue as well. Therefore, in vivo potency and efficacy of the compounds of formula (I) were studied in the apomorphine climbing assay, an animal screening test for antipsychotic activity.
5. Inhibition of Apomorphine Induced Climbing
Male CD-1 mice weighing 20-25 g were injected orally (n=12) with the test compound or vehicle. Fifty minutes later the animals were placed into cylindrical cages with walls of vertical metal bars. After 10 minutes habituation the mice were treated with apomorphine (1.5 mg/kg sc.). […] Scores were summed for each individual and group means were calculated. Drug effect was expressed and plotted as percentage inhibition of the apomorphine induced behaviour.

[1] = target: T1, rat recombinant D3 receptors (Rattus norvegicus, UniProt P19020); experiment: D3 receptor binding ([3H]spiperone); settings: rat recombinant D3 receptors expressed in Sf9 cells
T1 construct: purchased Perkin-Elmer 6110139; host or cells: Sf9 cells

D2 receptor = D2 receptor (Rattus norvegicus, UniProt P61169); experiment: D2 receptor binding ([3H]spiperone, rat brain striatal membrane)
Protocol: Non-specific binding was determined in the presence of 1 μM (+) butaclamol.

α1 receptor = experiment: α-1 receptor binding ([3H]-prazosine, rat cortical membrane)
Protocol: α1 receptor binding study was performed according to the methods described by Greengrass and Bremner (Eur. J. Pharmacol., 55:323-326, 1979) on rat cortical membrane preparation using [^3H]-prazosine (0.22-0.37 nM) as ligand. The non-specific binding was determined in the presence of 10 μM phentolamine.

5-HT1A receptor = target: T2, 5-HT1A receptor (Rattus norvegicus, UniProt P19327); experiment: 5-HT1A binding ([3H]8-OH-DPAT, rat hippocampal membrane); settings: [3H]8-hydroxy-2-(di-n-propylamino)-tetralin
T2 construct: on rat hippocampal membrane preparation; from tissue; host or cells: rat hippocampus membranes
T2 sequence (P19327 1-422): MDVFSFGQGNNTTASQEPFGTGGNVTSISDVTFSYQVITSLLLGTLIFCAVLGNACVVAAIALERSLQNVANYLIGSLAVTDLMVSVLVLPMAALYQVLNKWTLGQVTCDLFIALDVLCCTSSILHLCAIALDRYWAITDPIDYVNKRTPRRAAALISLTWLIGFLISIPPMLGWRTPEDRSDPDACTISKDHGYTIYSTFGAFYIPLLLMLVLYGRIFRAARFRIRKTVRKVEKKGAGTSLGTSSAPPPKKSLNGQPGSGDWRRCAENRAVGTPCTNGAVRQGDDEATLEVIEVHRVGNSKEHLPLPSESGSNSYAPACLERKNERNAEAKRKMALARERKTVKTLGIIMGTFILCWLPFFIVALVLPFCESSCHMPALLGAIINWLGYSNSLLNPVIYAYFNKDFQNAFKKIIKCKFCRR
Protocol: The non-specific binding was determined in the presence of 10 μM serotonin creatinine sulphate.

D2 receptor, sequence (P61169 1-415 isoform P61169-2): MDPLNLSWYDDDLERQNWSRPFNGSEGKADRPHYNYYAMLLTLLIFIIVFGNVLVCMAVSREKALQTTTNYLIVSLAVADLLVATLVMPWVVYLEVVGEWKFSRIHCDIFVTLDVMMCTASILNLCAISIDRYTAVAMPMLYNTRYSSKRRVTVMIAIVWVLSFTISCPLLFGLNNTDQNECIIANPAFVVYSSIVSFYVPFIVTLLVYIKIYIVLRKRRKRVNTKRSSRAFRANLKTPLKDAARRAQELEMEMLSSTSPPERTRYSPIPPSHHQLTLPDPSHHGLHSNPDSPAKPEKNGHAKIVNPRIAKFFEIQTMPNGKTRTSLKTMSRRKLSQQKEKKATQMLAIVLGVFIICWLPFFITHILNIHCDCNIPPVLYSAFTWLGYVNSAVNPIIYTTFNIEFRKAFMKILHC
T1 sequence (P19020 whole entry): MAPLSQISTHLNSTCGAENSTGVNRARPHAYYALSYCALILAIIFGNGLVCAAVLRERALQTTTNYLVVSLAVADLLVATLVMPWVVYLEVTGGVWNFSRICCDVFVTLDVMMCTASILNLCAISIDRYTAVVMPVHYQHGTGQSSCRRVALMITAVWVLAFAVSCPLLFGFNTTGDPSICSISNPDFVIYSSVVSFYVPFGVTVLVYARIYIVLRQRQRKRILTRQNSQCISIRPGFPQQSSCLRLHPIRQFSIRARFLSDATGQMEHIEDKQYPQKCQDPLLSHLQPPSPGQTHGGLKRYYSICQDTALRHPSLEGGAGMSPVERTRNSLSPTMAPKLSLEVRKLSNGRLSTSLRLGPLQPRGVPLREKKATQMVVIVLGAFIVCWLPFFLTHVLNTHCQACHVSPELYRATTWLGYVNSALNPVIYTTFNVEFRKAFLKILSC

Compound | ED50 (Male CD-1 mice) [mg/kg] | IC50 [1] [nM] | IC50 (D2 receptor) [nM] | IC50 (α1 receptor) [nM] | IC50 (5-HT1A receptor) [nM] | ranking of activity in apomorphine climbing assay (Male CD-1 mice) | melting point [°C]
O=C1CCc2ccc(OCCCCN3CCN(c4cccc(Cl)c4Cl)CC3)cc2N1 [Aripiprazole, reference compound] | 1 |  |  |  |  |  | 
CC(=O)N[C@H]1CC[C@H](CCN2CCN(c3cccc4c3CCC4)CC2)CC1 [Compound 1, trans-N-{4-[2-[4-(indan-4-yl)-piperazin-1-yl]-ethyl]-cyclohexyl}-acetamide] | 0.14 | < 2 | 10 to 40 | 40 to 200 | 1 to 20 | most active | 202 to 204
CCC(=O)N[C@H]1CC[C@H](CCN2CCN(c3cccc4c3CCC4)CC2)CC1 [Compound 2, trans-N-{4-[2-[4-(indan-4-yl)-piperazin-1-yl]-ethyl]-cyclohexyl}-propionamide] | 0.21 | < 2 | 10 to 40 | 40 to 200 | 1 to 20 |  | 194 to 196
CN(C)C(=O)N[C@H]1CC[C@H](CCN2CCN(c3cccc4c3CCC4)CC2)CC1 [Compound 3, trans-1-{4-[2-[4-(indan-4-yl)-piperazin-1-yl]-ethyl]-cyclohexyl}-3,3-dimethyl-urea] | 0.11 | < 2 | 10 to 40 | 40 to 200 | 1 to 20 | most active | 150 to 152
CCN(CC)C(=O)N[C@H]1CC[C@H](CCN2CCN(c3cccc4c3CCC4)CC2)CC1 [Compound 4, trans-1-{4-[2-[4-(indan-4-yl)-piperazin-1-yl]-ethyl]-cyclohexyl}-3,3-diethyl-urea] | 0.46 | < 2 | 10 to 40 | 40 to 200 | 1 to 20 |  | 157 to 159
CCNC(=O)N[C@H]1CC[C@H](CCN2CCN(c3cccc4c3CCC4)CC2)CC1 [Compound 5, trans-1-{4-[2-[4-(indan-4-yl)-piperazin-1-yl]-ethyl]-cyclohexyl}-3-ethyl-urea] | 0.47 | < 2 | 10 to 40 | 40 to 200 | 1 to 20 |  | 198 to 200
O=C(N[C@H]1CC[C@H](CCN2CCN(c3cccc4c3CCC4)CC2)CC1)N1CCOCC1 [Compound 6, trans-N-{4-[2-[4-(indan-4-yl)-piperazin-1-yl]-ethyl]-cyclohexyl}-morpholine-4-carboxamide] | 0.16 | < 2 | 10 to 40 | 40 to 200 | 1 to 20 | most active | 181 to 182
NC(=O)N[C@H]1CC[C@H](CCN2CCN(c3cccc4c3CCC4)CC2)CC1 [Compound 7, trans-1-{4-[2-[4-(indan-4-yl)-piperazin-1-yl]-ethyl]-cyclohexyl}-urea] |  |  |  |  |  |  | 204 to 206
CN(C)C(=O)N[C@H]1CC[C@H](CN2CCN(c3cccc4c3CCC4)CC2)CC1 [Compound 8, trans-1-{4-[[4-(indan-4-yl)-piperazin-1-yl]-methyl]-cyclohexyl}-3,3-dimethyl-urea] |  |  |  |  |  |  | 152 to 154
CC(=O)N[C@H]1CC[C@H](CCN2CCN(c3cccc4c3CCCC4)CC2)CC1 [Compound 9, trans-N-{4-[2-[4-(5,6,7,8-tetrahydronaphthalen-1-yl)-piperazin-1-yl]-ethyl]-cyclohexyl}-acetamide] | 0.26 | < 2 | 10 to 40 | > 200 | 1 to 20 |  | 187 to 189
CCC(=O)N[C@H]1CC[C@H](CCN2CCN(c3cccc4c3CCCC4)CC2)CC1 [Compound 10, trans-N-{4-[2-[4-(5,6,7,8-tetrahydronaphthalen-1-yl)-piperazin-1-yl]-ethyl]-cyclohexyl}-propionamide] | 0.35 | < 2 | 10 to 40 | > 200 | 1 to 20 |  | 182 to 185
CN(C)C(=O)N[C@H]1CC[C@H](CCN2CCN(c3cccc4c3CCCC4)CC2)CC1 [Compound 11, trans-1-{4-[2-[4-(5,6,7,8-tetrahydronaphthalen-1-yl)-piperazin-1-yl]-ethyl]-cyclohexyl}-3,3-dimethyl-urea] | 0.23 | < 2 | 10 to 40 | 40 to 200 | 1 to 20 |  | 190 to 193
O=C(N[C@H]1CC[C@H](CCN2CCN(c3cccc4c3CCCC4)CC2)CC1)N1CCOCC1 [Compound 12, trans-N-{4-[2-[4-(5,6,7,8-tetrahydronaphthalen-1-yl)-piperazin-1-yl]-ethyl]-cyclohexyl}-morpholine-4-carboxamide] | 0.2 | < 2 | 10 to 40 | 40 to 200 | 1 to 20 |  | 178 to 180
Cc1cc2c(s1)Nc1ccccc1N=C2N1CCN(C)CC1 [Olanzapine, reference compound] | 1.3 |  |  |  |  |  | 
